# “Also recorded” adds a separate entry of the source.
# What was measured:
# CNTO95 mAb = experiment: ELISA for CNTO95 binding to synthetic peptide-coated plates; parameters: species or system human; conditions: plates coated with 100 μg/ml peptide, absorbance at 450 nm
# Procedure: (§1) To verify the binding activity of synthetic peptides to CNTO95 mAb, ELISAs were performed using peptide-coated plates. PRO-Bind ELISA plates (Falcon) were coated with 100 μl (100 μg/ml) of either CEN 2319, CEN2322 or PBS buffer. Peptide-charged ELISA plates were incubated with 100 μl of various concentrations of CNTO95 mAb for 2 hours at 37° C., and the wells then were washed with PBS plus 0.5% Tween 20 (PBST). Binding was detected with a 1:5,000 dilution of peroxidase-conjugated goat anti-human IgG, Fc gamma fragment antibody (Jackson) and color development with 3,3′,5,5′-tetramethyl-benzidine dihydrochloride (TMB). The reaction was detected by reading the absorbance at 450 nm. PBS-coated wells were used as background control. […] Another set of negative control was performed using mAb CNTO1275 (FIG. 4C). The binding signal is negative.
# CEN2319 coated plates = experiment: ELISA of other antibodies on CEN2319 coated plates; assay type: binding; conditions: negative control antibodies
# Procedure: as §1
# [1] = system: A375.S2 cells (human melanoma cells); experiment: Flow cytometry of CNTO95 binding to surface integrins of A375.S2 cells with or without peptides; assay type: cell-based; conditions: CNTO95 only 10 ug/ml, no peptide
# Procedure: For the detection of surface integrins, A375.S2 cells (human melanoma cells) were harvested, rinsed, suspended in unsupplemented RPMI media. The antibody, CNTO95, was incubated at a final concentration of 10 ug/ml with or without peptides at the concentrations given in Table 1 for 1 hr. Then, the cell solution was added and incubated for an additonal 60 minutes on ice followed by addition of PE-labeled goat anti-human antibody IgG-Fc (10 ug/ml). Absence of primary antibody or substitution of primary antibody with isotype matched antibody served as negative controls. Cells were immediately analyzed with a FACS Scan II flow cytometer (Becton Dickinson, Mountain View, Calif.). […] For simplicity, the mean channel fluorescence for each peak was used as the relative staining value (Table 5).
# CNTO95 [2] = experiment: Titration microcalorimetry of synthetic peptides with CNTO95; assay type: binding, human
# Procedure: Titration microcalorimetry is a technique used to measure equilibrium binding affinity by monitoring the enthalpy of binding as a function of titrant added to second molecule at fixed temperature. To determine binding affinities and stoichiometries of synthetic peptides for CNTO95, titration calorimetry experiments were carried out with a Microcal (Amherst, Mass.) MCS isothermal titration calorimeter. Protein concentrations were measured by absorbance at 280 nm. Aliquots of peptide were titrated into a fixed concentration of CNTO95 at 3 μM in Dulbecco's PBS. Heats of binding are monitored with each injection. Peptides were added until the observed heats approach the heats of diluted peptides into buffer. Calorimetry data were analyzed with Microcal ORIGIN software according to a single-site binding model in each case (Wiseman et al., Anal. Biochem. 179: 131-137, 1989). The model includes an equilibrium binding constant (Kd), a molar binding enthalpy change (ΔH) and a molar binding ratio for the binding reaction at 25° C. Table 3 gives the calculated CNTO95 binding properties of synthetic peptides from titration calorimetry data.
# [3] = system: CNTO95 mAb binding to integrin αVβ5; experiment: Competitive ELISA on plates coated with integrin αVβ5; parameters: species or system human; conditions: peptide 0 to 200 μg/ml
# Procedure: (§2) Competitive ELISA on microtiter plates coated with integrins αVβ3 or αVβ5 were carried out to evaluate the binding specificity for CEN2319 peptide to CNTO95 mAb. 100 ul of 5 μg/ml either αVβ3 or αVβ5 (Chemicon, Temacula, Calif.) was coated on the ELISA plates at […] over night. Then, 100 μl of 2 μg/ml CNTO95 was pre-incubated at room temperature for 30 minutes with various concentration peptides (100 μl), ranging from 0 to 200 μg/ml. The peptide-antibody mixtures were then added to the integrin-coated microwells. Following incubation at 37° C. for 2 hours, the plates were washed thoroughly, and bound CNTO95 was detected using peroxidase-conjugated goat anti-human IgG, Fc gamma fragment antibody (1:5,000 dilution), followed by substrate addition as above.
# [4] = system: CNTO95 mAb binding to integrin αVβ3; experiment: Competitive ELISA on plates coated with integrin αVβ3; parameters: species or system human; conditions: peptide 0 to 200 μg/ml
# Procedure: as §2
# CNTO95 [5] = experiment: Positional substitution analysis: peptides spotted on nitrocellulose membrane probed with CNTO95; assay type: binding, human; parameters: key: +++: very strong; ++: strong; +: equivalent; ±: weak; Blank: negative; conditions: CEN2319 with one position substituted, + = equivalent
# Procedure: In order to further understand the contribution of each amino acid residue in the binding, systematic substitution at each position were made and tested. The binding analysis was carried out by spotting the various peptides on a nitrocellulose membrane and probing with CNTO95 followed by HRP-conjugated goat-anti-human Fc antibody and color developed using a peroxidase substrate.
# [6] = system: M21, human melanoma cells; experiment: Cell adhesion assay on vitronectin coated plates, CNTO95 with peptides; assay type: cell-based; conditions: FIG. 7
# Procedure: For cell adhesion assays, Microtiter plates (Linbro-Titertek, ICN Biomedicals, Inc) were coated at 4° C. overnight with vitronectin (1 mg/ml). Immediately before use plates were rinsed with PBS and blocked for 1 hour with 1% BSA/PBS (pH 7.4). Adherent cells (M21, human melanoma cells) were labeled with Calcein AM fluorescent dye (Molecular Probes, Eugene, Oreg.) according to the manufacturer's instructions, harvested, washed twice, and suspended in 0.1% BSA in DMEM medium. Various concentration of Antibodies were incubated with peptides for 1 hrs. Cell density was adjusted to 5×10^5/ml and they were incubated with antibody and peptide solution for 15 min at 37° C. The cell-antibody mixture was added to wells (100 μl per well) and incubated for 1 h at 37° C. Plates were rinsed twice with PBS to remove unbound cells and adhesion was measured in a fluorescence plate reader (Fluoroskan) at 485-538 nm. Cell adhesion to BSA-coated wells served as a negative control. Isotype matched antibodies served as a negative control.
substance,measurement,setting,value
SPLFXPW [flanked by cysteine residues which form a disulfide bond],CNTO95 mAb binding to peptide-coated plates,CNTO95 mAb,no specific binding was detected
CNTO1275: another human mAb to an unrelated antigen,antibody binding to CEN2319 coated plates,CEN2319 coated plates,negative
"CNTO95: fully human IgG1, kappa monoclonal antibody recognizing integrins αVβ3 and αVβ5",Mean Channel Fluorescence,[1],89.7
DYRTA ADTTGLQ (DYRTAADTTGLQ; PEPTIDE (1)..(12) Residues 564 to 575 inclusive of human alpha V integrin subunit protein; listed as Homo sapiens) [CEN2322],CNTO95 mAb binding to peptide-coated plates,CNTO95 mAb,did not bind
same,Comments (binding to CNTO95 by calorimetry),CNTO95 [2],no evidence for CEN2322 peptide binding to CNTO95 mAb
same,competition with CNTO95 binding to αVβ5 (in words),[3],did not compete
same,competition with CNTO95 binding to αVβ3 (in words),[4],did not compete
DFRSWWDLSGYR [CEN2319],CNTO95 mAb binding to peptide-coated plates,CNTO95 mAb,recognized specifically; also recorded: specific binding
same,Intensity (relative density of color at each spot),CNTO95 [5]; listed as D1D,+
same,Intensity (relative density of color at each spot),CNTO95 [5]; listed as D7D,++
same,Intensity (relative density of color at each spot),CNTO95 [5]; listed as F2F,+
same,Intensity (relative density of color at each spot),CNTO95 [5]; listed as G10G,+
same,Intensity (relative density of color at each spot),CNTO95 [5]; listed as L8L,++
same,Intensity (relative density of color at each spot),CNTO95 [5]; listed as R3R,+
same,Intensity (relative density of color at each spot),CNTO95 [5]; listed as R12R,+
same,Intensity (relative density of color at each spot),CNTO95 [5]; listed as S4S,+
same,Intensity (relative density of color at each spot),CNTO95 [5]; listed as S9S,+
same,Intensity (relative density of color at each spot),CNTO95 [5]; listed as W5W,++
same,Intensity (relative density of color at each spot),CNTO95 [5]; listed as W6W,+
same,Intensity (relative density of color at each spot),CNTO95 [5]; listed as Y11Y,+
same,competition with CNTO95 binding to αVβ5 (in words),[3],significant inhibition; also recorded: inhibits
same,competition with CNTO95 binding to αVβ3 (in words),[4],inhibits
"DFRSWWDLEE (Phage Library Derived Sequence) [CEN2553, alternate antagonist peptide, 10-mer]",effect on the inhibition of cellular adhesion by CNTO95 to vitronectin coated plates,[6],indistinguishable from the peptide CEN2319

# Reference: US7365154B2, “Peptides antagonistic to an anti-angiogenic antibody and uses therefor” (Centocor, Inc., priority 2003, dated 2008)
